Experimental: FIG. 10 illustrates a dynamic vapor sorption (DVS) isotherm profile of Form C4 of (9-[(R)-2-[[(S)-[[(S)-1-(isopropoxycarbonyl)ethyl]amino] phenoxyphosphinyl] methoxy]propyl] adenine hemifumarate , according to another embodiment. For the DVS measurement a sample of crystalline Form C4 was cycled through changing humidity conditions to determine its hygroscopicity. The sample was analyzed using a Surface Measurement System DVS-1 Dynamic Vapor Sorption System. About 100 mg of crystalline Form C4 was placed into a mesh vapor sorption balance pan and loaded into a dynamic vapor sorption balance as part of the
Surface Measurement System. Data was collected in 1-minute intervals. Nitrogen was used as the carrier gas. The sampled crystalline Form C4 was subjected to a ramping profile from 0-95% relative humidity (RH) at 5 and 10% increments, maintaining the sample at each step until a stable weight had been achieved (99.5% step completion). After completion of the Sorption cycle, the sample was dried using the same procedure, but all the way down to 95% RH to 30% RH (10% RH interval) and from 30% RH to 5% RH (5% RH interval). The weight change during the Sorption/desorption cycles were plotted, allowing for the hygroscopic nature of the sample to be determined.
• 1. The hygroscopicity was studied at 25° C. using an SMS DVS intrinsic analyser. • 2. About 100 mg of sample was placed in a tared sample holder at an initial ambient room humidity. • 3. A total wet/dry nitrogen flow rate of 270 cc/min was used throughout the study. • 4. Solids were studied by performing one full cycle of the following program: 300 minutes of drying at 25° C. under dry N2, followed by settings of 0, 5, 10, 15, 20, 25, 30, 40, 50, 60, 70, 80, 90 and 95% RH, with exposure time at each humidity set point dependent upon 99.5% confidence in the F1 fit model or 60 minutes. The maximum time allowed at any one humidity set point was 60 minutes. Followed by decreasing 95% RH to 30% RH (10% RH interval) and from 30% RH to 5% RH (5% RH interval). […]. The sample was maintained under dry N2 after the cycle was completed. • 5. Percent weight gain was calculated based on the dry weight basis.

Structure (SMILES): CC(C)OC(=O)[C@H](C)N[P@](=O)(CO[C@H](C)Cn1cnc2c(N)ncnc21)Oc1ccccc1 [Form C4, (9-[(R)-2-[[(S)-[[(S)-1-(isopropoxycarbonyl)ethyl]amino]phenoxyphosphinyl]methoxy]propyl]adenine hemifumarate]
- hygroscopicity (DVS isotherm) (25° C., 0-95% RH sorption/desorption cycles): non-hygroscopic
- hysteresis between sorption and desorption cycles (DVS, 0-95% RH): very small hysteresis
- change of crystalline form during DVS (XRPD post DVS vs pre-DVS) (XRPD pattern post DVS analysis compared with FIG. 4): no change in the crystalline Form C4
- increase in mass during the Sorption cycle (between 0% and 95% RH, 25° C.): about 1.7%

From patent US20200407382A1, “POLYMORPHIC FORMS OF (9-[(R)-2-[[(S)-[[(S)-1-(ISOPROPOXYCARBONYL)ETHYL]AMINO]PHENOXY PHOSPHINYL]METHOXY]PROPYL] ADENINE AND PHARMACEUTICALLY ACCEPTABLE SALTS THEREOF” (CIPLA LIMITED, priority 2017, published 2020)
